From patent publication US8569264B2, “Antibacterial 4,5-substituted aminoglycoside analogs having multiple substituents” (ISIS Pharmaceuticals, Inc., priority 2005, dated 2013)
pIC50, pKd: −log10 of the molar value. Like-named read-outs stand apart in the source and are kept apart here.

Tests used:
[1] = test system: E. coli S30 bacterial extract (pBestLuc firefly luciferase reporter); assay: Coupled bacterial transcription/translation assay; format: biochemical; conditions: read-out: Trans/Trans IC50
Description: The DNA template, pBestLuc™ (Promega), is a plasmid containing a reporter gene for firefly luciferase fused to a strong tac promoter and ribosome binding site. Messenger RNA from 1 μg pBestLuc is transcribed and translated in E. coli S30 bacterial extract in the presence or absence of test compound. Compounds are tested in a black 96 well microtiter plate with an assay volume of 35 μL. […] The transcription/translation reaction is incubated for 35 minutes at 37° C. followed by detection of functional luciferase with the addition of 30 μL LucLite™ (Packard). Light output is quantitated on a Packard TopCount.

[2] = test system: E. Coli; assay: MIC, E. Coli; format: cell-based
Description: (§1) The MIC assays are carried out in 150 μL volume in duplicate in 96-well clear flat-bottom plates. The bacterial suspension from an overnight culture growth in appropriate medium is added to a solution of test compound in 4% DMSO in water. Final bacterial inoculum is approximately 10^5-10^6 CFU/well. […] Both ampicillin and tetracycline are used as antibiotic-positive controls in each screening assay for S. pyogenes, E. coli imp-, E. coli, S. aureus, E. faecalis, K. pneumoniae and P. vulgaris. Ciprofloxacin is used as an antibiotic positive control in each screening assay for P. aeruginosa.

[3] = test system: S. Aureus; assay: MIC, S. Aureus; format: cell-based
Description: as §1

[4] = target: 18S ribosomal subunit RNA target; assay: Mass spectrometry based binding assay (FTICR), 18S
Description: (§2) In a typical experiment, 10 μL of an aqueous solution containing 100 mM ammonium acetate buffer, 2.5 or 5 μM of each RNA, and 33% isopropyl alcohol (to aid ion desolvation) was prepared with different concentrations of each ligand or ligand mixture Samples were introduced into the electrospray ionization source (negative ionization mode) at 1 μL/min and ions were stored for 1 sec in an RF-only hexapole following desolvation. The abundances were integrated from the respective ions for free RNA and the ligand-RNA complex. The primary (1:1 RNA:ligand) and secondary (1:2 complex, if observed). […] The peak ratios were measured at each concentration, then a plot of complex/free RNA versus concentration of ligand added was fitted to a second (or higher) order binding polynomial to determine the KD.

[5] = target: 16S ribosomal subunit RNA target; assay: Mass spectrometry based binding assay (FTICR), 16S
Description: as §2, with “[…],” for “2.5 or 5 μM of each RNA,”

[6] = test system: Staphylococcus aureus (Smith Strain ATCC 13709); assay: Staphylococcus aureus mouse protection assay; format: in vivo, mice; conditions: Staph Conc. 10^6, 10% Mucin, the 13th table
Description: Two of the novel aminoglycoside compounds of the invention were examined for their anitbacterial activity against staphylococcus aureus. Mice were fed with autoclaved commercial food pellets and sterile water ad libitum. Animals were inoculated intraperitoneally with 0.5 mL/mouse of the indicated concentration of S. aureus (ATCC 13709) containing 10% mucin. There were 10 mice in each treatment group and compounds were administered subcutaneously one and 3 hour after infection. Compounds 15a (R4═R5═CH3) and 15j (R4═H, R5═(CH2)2C6H5)) were used at 75 mg/kg, 37.5 mg/kg, 18.8 mg/kg, 9.4 mg/kg, 4.7 mg/kg, 2.3 mg/kg, 1.17 mg/kg and 0.5 mg/kg. Amakacin, paromomycin and neomycin were used as the positive controls at concentrations of 2 mg/kg, 1 mg/kg and 0.5 mg/kg.
Test compound was administered as an aqueous buffer solution (phosphate buffered saline (PBS), pH=7.4).

[7] = FTICR mass spectrometry, Example 105
[8] = FTICR mass spectrometry, run at 100 nM RNA, Example 105

In the case of `NCC1OC(OC2C(CO)OC(OC3C(O)C(N)CC(N)C3OC3OC(CO)C(O)C(O)C3N)C2OCCNc2ccccc2)C(N)C(O)C1O` (centres unmarked) [Compound 9l], the pIC50 ([1]; Example 105) was 7.00, the “MIC E. Coli.” value ([2]; Example 105) was 50 to 100 µM and the “MIC S. Aureus” value ([3]; Example 105) was 6 to 12 µM.

Work on `CN(C)CCOC[C@H]1O[C@@H](O[C@@H]2[C@@H](O)[C@H](N)C[C@H](N)[C@H]2O[C@H]2O[C@H](CO)[C@@H](O)[C@H](O)[C@H]2N)[C@H](O)[C@@H]1O[C@H]1O[C@@H](CN)[C@@H](O)[C@H](O)[C@H]1N` [Compound 54, 5″-O-(2-N,N-dimethylaminoethyl) paromomycin] yielded a pKd [4, 7] of 4.17, a pKd [5, 8] of 5.39 and a pIC50 ([1]; Example 105) of 6.52. For the same molecule, the “MIC E. Coli.” value ([2]; Example 105) was 6 to 12 µM and the “MIC S. Aureus” value ([3]; Example 105) was 25 to 50 µM.

In the case of `COc1cc(CCNCCOC2C(OC3C(O)C(N)CC(N)C3OC3OC(CO)C(O)C(O)C3N)OC(CO)C2OC2OC(CN)C(O)C(O)C2N)cc(OC)c1` (centres unmarked) [Compound 9y], the pIC50 ([1]; Example 106) was 6.70, the “MIC E. Coli.” value ([2]; Example 106) was 10 to 20 µM and the “MIC S. Aureus” value ([3]; Example 106) was 5 to 10 µM.

Work on `NCCCNCCOC1C(OC2C(O)C(N)CC(N)C2OC2OC(CO)C(O)C(O)C2N)OC(CO)C1O` (centres unmarked) [Compound 30b] yielded a pKd [4, 7] of 4.74, a pKd [5, 8] of 5.04 and a pIC50 ([1]; Example 105) of 7.00. For the same molecule, the “MIC E. Coli.” value ([2]; Example 105) was 6 to 12 µM and the “MIC S. Aureus” value ([3]; Example 105) was 6 to 12 µM.

With `CC(C)(C)OC(=O)NNCC1OC(OC2C(N)CC(N)C(O)C2OC2OC(CO)C(OC3OC(CN)C(O)C(O)C3N)C2O)C(N)C(O)C1O` (centres unmarked) [Compound 15d] the pKd ([4]; Example 108) was 5.85, the pKd ([5]; Example 108) was 8.00 and the pIC50 ([1]; Example 108) was 6.52. For the same molecule, the “MIC E. Coli.” value ([2]; Example 108) was 6 to 12 µM and the “MIC S. Aureus” value ([3]; Example 108) was 12 to 25 µM.

Work on `NCC1OC(OC2C(CO)OC(OC3C(O)C(N)CC(N)C3OC3OC(CNN)C(O)C(O)C3N)C2O)C(N)C(O)C1O` (centres unmarked) [Compound 15i] yielded a pKd ([4]; Example 108) of 5.77, a pKd ([5]; Example 108) of 6.22 and a pIC50 ([1]; Example 108) of 6.70. For the same molecule, the “MIC E. Coli.” value ([2]; Example 108) was 12 to 25 µM and the “MIC S. Aureus” value ([3]; Example 108) was 3 to 6 µM.

In the case of `NCCCCNCC1OC(OC2C(N)CC(N)C(O)C2OC2OC(CO)C(OC3OC(CN)C(O)C(O)C3N)C2O)C(N)C(O)C1O` (centres unmarked) [Compound 15f], the pKd ([4]; Example 108) was 5.22, the pKd ([5]; Example 108) was 5.20 and the “MIC E. Coli.” value ([2]; Example 108) was 2.5-5^ uM. For the same molecule, the “MIC S. Aureus” value ([3]; Example 108) was 10 to 20 µM.

For neomycin [reference compound], the “# Dead mice/Total mice in group” value ([6]; 0.5 mg/kg subcutaneously) was 7/10, the “# Dead mice/Total mice in group” value ([6]; 1 mg/kg subcutaneously) was 10/10 and the “# Dead mice/Total mice in group” value ([6]; 2 mg/kg subcutaneously) was 4/10.

With `NCC1OC(OC2C(CO)OC(OC3C(O)C(N)CC(N)C3OC3OC(CO)C(O)C(O)C3N)C2OCCNC2CCCNC2)C(N)C(O)C1O` (centres unmarked) [Compound 9j] the pKd [4, 7] was 5.30, the pKd [5, 8] was 7.00 and the pIC50 ([1]; Example 105) was 7.00. For the same molecule, the “MIC E. Coli.” value ([2]; Example 105) was 1.5-3^ uM and the “MIC S. Aureus” value ([3]; Example 105) was 3 to 6 µM.

With `NCC1OC(OC2C(CO)OC(OC3C(O)C(N)CC(N)C3OC3OC(CO)C(O)C(O)C3N)C2OCCNCCc2cccnc2)C(N)C(O)C1O` (centres unmarked) [Compound 9o] the pKd [4, 7] was 6.00, the pKd [5, 8] was 6.70 and the pIC50 ([1]; Example 105) was 6.70. The “MIC E. Coli.” value ([2]; Example 105) was 6 to 12 µM and the “MIC S. Aureus” value ([3]; Example 105) was 0.6-1^ uM.

Work on `NCCOC1C(OC2C(O)C(N)CC(N)C2OC2OC(CO)C(O)C(O)C2N)OC(CO)C1O` (centres unmarked) [Compound 30a] yielded a pKd [4, 7] of 4.24, a pKd [5, 8] of 4.72 and a pIC50 ([1]; Example 105) of 6.70. For the same molecule, the “MIC E. Coli.” value ([2]; Example 105) was 6 to 12 µM and the “MIC S. Aureus” value ([3]; Example 105) was 12 to 25 µM.

Molecule `NCC1OC(OC2C(CO)OC(OC3C(O)C(N)CC(N)C3OC3OC(CO)C(O)C(O)C3N)C2OCCNCc2ccc(N)nc2)C(N)C(O)C1O` (centres unmarked) [Compound 9s] has a pKd [4, 7] of 6.30, a pKd [5, 8] of 7.00 and a pIC50 ([1]; Example 105) of 6.70. For the same molecule, the “MIC E. Coli.” value ([2]; Example 105) was 3 to 6 µM and the “MIC S. Aureus” value ([3]; Example 105) was 0.3 to 0.6 µM.
